Measured values as given in patent US10206909B2, “3-(1H-pyrrolo[2,3-B]pyridin-2-yl)-1H-pyrazolo[4,3-B]pyridines and therapeutic uses thereof” (Samumed, LLC, priority 2015, dated 2019).
Values belong to the molecule of their own block, whether it stands above or below them.

Key:
[1] = tested on: primary human fibroblasts derived from IPF patients (LL29 cells); assay: Inhibition of the fibrotic process: αSMA staining in TGF-β1 treated fibroblasts; assay type: cell-based; details: Fibroblast; for EC50: 96 h, LL29 cells, TGF-β1 20 ng/mL, 4 days, % αSMA positive cells; for inhibition at 10 µM: given where EC50 >10 μM, LL29, αSMA, read-out: percent inhibition at 10 μM
Source text: Representative compounds were screened using primary human fibroblasts (derived from IPF patients) treated with TGF-β1 to determine their ability to inhibit the fibrotic process.
Human Fibroblast Cell Culture: Primary human fibroblasts derived from IPF patients (LL29 cells) [^1Xiaoqiu Liu, et. al., “Fibrotic Lung Fibroblasts Show Blunted Inhibition by cAMP Due to Deficient cAMP Response Element-Binding Protein Phosphorylation”, Journal of Pharmacology and Experimental Therapeutics (2005), 315(2), 678-687; ^2Watts, K. L., et. al., “RhoA signaling modulates cyclin D1 expression in human lung fibroblasts; implications for idiopathic pulmonary fibrosis”, Respiratory Research (2006), 7(1), 88] were obtained from American Type Culture Collection (ATCC) and expanded in F12 medium supplemented with 15% Fetal Bovine Serum and Penicillin/Streptomycin.
Compound Screening: Each compound was dissolved in DMSO as a 10 mM stock and used to prepare compound source plates. Serial dilution (1:2, 11-point dose-response curves from 10 μM to […]) and compound transfer was performed using the ECHO 550 (Labcyte, Sunnyvale, Calif.) into 384-well clear bottom assay plates (Greiner Bio-One) with appropriate DMSO backfill for a final DMSO concentration of 0.1%. LL29 cells are plated at 1,500 cells/well in 80 μL/well F12 medium supplemented with 1% Fetal Bovine Serum. One hour after addition of the cells, TGF-β1 (Peprotech; 20 ng/mL) was added to the plates to induce fibrosis (ref. 1 and 2 above). Wells treated with TGF-β1 and containing DMSO were used as controls. Cells were incubated at 37° C. and 5% CO2 for 4 days. Following incubation for 4 days, SYTOX green nucleic acid stain (Life Technologies [Thermo Fisher Scientific]) was added to the wells at a final concentration of 1 μM and incubated at room temperature for 30 min. Cells were then fixed using 4% formaldehyde (Electron Microscopy Sciences), washed 3 times with PBS followed by blocking and permeabilization using 3% Bovine Serum Albumin (BSA; Sigma) and 0.3% Triton X-100 (Sigma) in PBS. Cells were then stained with antibody specific to α-smooth muscle actin (αSMA; Abcam) (ref. 1 and 2 above) in 3% Bovine Serum Albumin (BSA; Sigma) and 0.3% Triton X-100 (Sigma) in PBS, and incubated overnight at 4° C. Cells were then washed 3 times with PBS, followed by incubation with Alexa Flor-647 conjugated secondary antibody (Life Technologies [Thermo Fisher Scientific]) and DAPI at room temperature for 1 hour. Cells were then washed 3 times with PBS and plates were sealed for imaging. αSMA staining was imaged by excitation at 630 nm and emission at 665 nm and quantified using the Compartmental Analysis program on the CellInsight CX5 (Thermo Scientific). Dead or apoptotic cells were excluded from analysis based on positive SYTOX green staining. % of total cells positive for αSMA were counted in each well and normalized to the average of 11 wells treated with TGF-β1 on the same plate using Dotmatics' Studies Software. The normalized averages (fold change over untreated) of 3 replicate wells for each compound concentration were used to create dose-responses curves and EC50 values were calculated using non-linear regression curve fit in the Dotmatics' Studies Software. For EC50 of >10 μM, the percent inhibition at 10 μM is provided.

[2] = tested on: primary human mesenchymal stem cells (hMSCs); assay: Chondrogenesis induction in mesenchymal stem cells (nodule count); assay type: cell-based; details: 144 h, 6 days; for EC50: concentration required to induce 50% levels of chondrogenesis vs TGF-β3, read-out: Conc (nM) of 50% TGF-β3 activity; for Emax: relative to TGF-β3 (10 ng/mL) positive control, read-out: Max. Activity as % TGF-β3 activity
Description: Representative compounds were screened using primary human mesenchymal stem cells (hMSCs) to determine their ability to induce chondrogenesis (process by which cartilage is developed).
Human Mesenchymal Stem Cell Culture: Primary human mesenchymal stem cells (hMSCs) were purchased from Lonza (Walkersville, Md.) and expanded in Mesenchymal Stem Cell Growth Media (Lonza). Cells between passage 3 and 6 were used for the experiments.
Compound Screening: Each compound was dissolved in DMSO as a 10 mM stock and used to prepare compound source plates. Serial dilution (1:3, 6-point dose-response curves from 2700 nM to 10 nM) and compound transfer was performed using the ECHO 550 (Labcyte, Sunnyvale, Calif.) into 96-well clear bottom assay plates (Greiner Bio-One) with appropriate DMSO backfill for a final DMSO concentration of 0.03%. hMSCs were plated at 20,000 cells/well in 250 μL/well Incomplete Chondrogenic Induction Medium (Lonza; DMEM, dexamethasone, ascorbate, insulin-transferrin-selenium [ITS supplement], gentamycin-amphotericin [GA-1000], sodium pyruvate, proline and L-glutamine). TGF-β3 (10 ng/mL) was used as a positive control for differentiation while negative control wells were treated with 75 nL DMSO for normalization and calculating EC50 values. Cells were incubated at 37° C. and 5% CO2 for 6 days. To image chondrogenic nodules, the cells were fixed using 4% formaldehyde (Electron Microscopy Sciences), and stained with 2 μg/mL Rhodamine B (Sigma-Aldrich) and 20 μM Nile Red (Sigma-Aldrich) [Johnson K., et. al, A Stem Cell-Based Approach to Cartilage Repair, Science, (2012). 336(6082), 717-721]. The nodules imaged (4 images per well at 4× magnification) by excitation at 531 nm and emission at 625 nm and quantified using the CellInsight CX5 (Thermo Scientific). Number of nodules in each well was normalized to the average of 3 DMSO treated wells on the same plate using Excel (Microsoft Inc.). The normalized averages (fold change over DMSO) of 3 replicate wells for each compound concentration were calculated. Due to solubility limitations of some of the compounds, curve fitting was incomplete leading to inaccurate EC50 determinations.
Using TGF-β3 as a positive control, the concentration of representative compounds required to induce 50% levels of chondrogenesis is reported. In addition, the maximum activity of each compound and the respective dose that each compound reached maximum chondrogenesis activity is reported.

EC50 [2]: 100 nM
Compound: FC1(F)CCN(Cc2cncc(-c3ccc4[nH]nc(-c5cc6cccnc6[nH]5)c4n3)c2)C1 [Compound 278, 5-(5-((3,3-Difluoropyrrolidin-1-yl)methyl)pyridin-3-yl)-3-(1H-pyrrolo[2,3-b]pyridin-2-yl)-1H-pyrazolo[4,3-b]pyridine]
EC50 [1]: 86 nM | Emax [2]: 134%

Compound: CN(C)CCNc1cc(F)cc(-c2ccnc3[nH]c(-c4n[nH]c5ccc(-c6ccncc6)nc45)cc23)c1 [Compound 466, N^1-(3-Fluoro-5-(2-(5-(pyridin-4-yl)-1H-pyrazolo[4,3-b]pyridin-3-yl)-1H-pyrrolo[2,3-b]pyridin-4-yl)phenyl)-N^2,N^2-dimethylethane-1,2-diamine]
EC50 [1]: 391 nM | Emax [2]: 17%

Compound: c1cnc2[nH]c(-c3n[nH]c4ccc(-c5cncnc5)nc34)cc2c1 [Compound 279, 5-(Pyrimidin-5-yl)-3-(1H-pyrrolo[2,3-b]pyridin-2-yl)-1H-pyrazolo[4,3-b]pyridine]
EC50 [1]: > 10000 nM | inhibition at 10 µM [1]: 0% | Emax [2]: 43%

EC50 [2]: 10 nM
Compound: CCNCc1cncc(-c2ccc3[nH]nc(-c4cc5cccnc5[nH]4)c3n2)c1 [Compound 258, N-((5-(3-(1H-Pyrrolo[2,3-b]pyridin-2-yl)-1H-pyrazolo[4,3-b]pyridin-5-yl)pyridin-3-yl)methyl)ethanamine]
EC50 [1]: 1580 nM | Emax [2]: 80%

Compound: CN1CCN(c2ccnc3[nH]c(-c4n[nH]c5ccc(-c6cncc(NC(=O)C(C)(C)C)c6)nc45)cc23)CC1 [Compound 232, N-(5-(3-(4-(4-Methylpiperazin-1-yl)-1H-pyrrolo[2,3-b]pyridin-2-yl)-1H-pyrazolo[4,3-b]pyridin-5-yl)pyridin-3-yl)pivalamide]
EC50 [1]: 795 nM | Emax [2]: 24%

EC50 [2]: 10 nM
Compound: CCCCC(=O)Nc1cncc(-c2ccc3[nH]nc(-c4cc5c(N6CCCCC6)ccnc5[nH]4)c3n2)c1 [Compound 187, N-(5-(3-(4-(Piperidin-1-yl)-1H-pyrrolo[2,3-b]pyridin-2-yl)-1H-pyrazolo[4,3-b]pyridin-5-yl)pyridin-3-yl)pentanamide]
EC50 [1]: 4880 nM | Emax [2]: 92%

Compound: Nc1cncc(-c2ccc3[nH]nc(-c4cc5c(-c6ccncc6)ccnc5[nH]4)c3n2)c1 [Compound 115, 5-(3-(4-(Pyridin-4-yl)-1H-pyrrolo[2,3-b]pyridin-2-yl)-1H-pyrazolo[4,3-b]pyridin-5-yl)pyridin-3-amine]
EC50 [1]: > 10000 nM | inhibition at 10 µM [1]: 28.8% | Emax [2]: 27%

Compound: CN(C)Cc1cncc(-c2ccc3[nH]nc(-c4cc5cccnc5[nH]4)c3n2)c1 [Compound 265, 1-(5-(3-(1H-Pyrrolo[2,3-b]pyridin-2-yl)-1H-pyrazolo[4,3-b]pyridin-5-yl)pyridin-3-yl)-N,N-dimethylmethanamine]
EC50 [1]: 3200 nM | Emax [2]: 37%

Compound: Fc1ccc(-c2ccnc3[nH]c(-c4n[nH]c5ccc(-c6cncc(CN7CCC(F)(F)C7)c6)nc45)cc23)cc1 [Compound 54, 5-(5-((3,3-Difluoropyrrolidin-1-yl)methyl)pyridin-3-yl)-3-(4-(4-fluorophenyl)-1H-pyrrolo[2,3-b]pyridin-2-yl)-1H-pyrazolo[4,3-b]pyridine]
EC50 [1]: 374 nM

Compound: c1csc(-c2ccnc3[nH]c(-c4n[nH]c5ccc(-c6ccncc6)nc45)cc23)c1 [Compound 354, 5-(Pyridin-4-yl)-3-(4-(thiophen-2-yl)-1H-pyrrolo[2,3-b]pyridin-2-yl)-1H-pyrazolo[4,3-b]pyridine]
EC50 [1]: 2250 nM

Compound: CN(C)c1cncc(-c2ccc3[nH]nc(-c4cc5c(-c6ccoc6)ccnc5[nH]4)c3n2)c1 [Compound 315, 5-(3-(4-(Furan-3-yl)-1H-pyrrolo[2,3-b]pyridin-2-yl)-1H-pyrazolo[4,3-b]pyridin-5-yl)-N,N-dimethylpyridin-3-amine]
EC50 [1]: 5520 nM

Compound: O=C(Cc1ccccc1)Nc1cncc(-c2ccc3[nH]nc(-c4cc5c(-c6ccoc6)ccnc5[nH]4)c3n2)c1 [Compound 318, N-(5-(3-(4-(Furan-3-yl)-1H-pyrrolo[2,3-b]pyridin-2-yl)-1H-pyrazolo[4,3-b]pyridin-5-yl)pyridin-3-yl)-2-phenylacetamide]
EC50 [1]: > 10000 nM | inhibition at 10 µM [1]: 25.7%

Compound: O=C(Nc1cncc(-c2ccc3[nH]nc(-c4cc5c(-c6ccc(F)cc6)ccnc5[nH]4)c3n2)c1)c1ccccc1 [Compound 39, N-(5-(3-(4-(4-Fluorophenyl)-1H-pyrrolo[2,3-b]pyridin-2-yl)-1H-pyrazolo [4,3-b]pyridin-5-yl)pyridin-3-yl)benzamide]
EC50 [1]: 7790 nM

Compound: CC(C)CC(=O)Nc1cncc(-c2ccc3[nH]nc(-c4cc5c(-c6ccccc6F)ccnc5[nH]4)c3n2)c1 [Compound 58, N-(5-(3-(4-(2-Fluorophenyl)-1H-pyrrolo[2,3-b]pyridin-2-yl)-1H-pyrazolo [4,3-b]pyridin-5-yl)pyridin-3-yl)-3-methylbutanamide]
EC50 [1]: > 10000 nM | inhibition at 10 µM [1]: 18.2%

Compound: Fc1ccc(-c2ccnc3[nH]c(-c4n[nH]c5ccc(-c6cncnc6)nc45)cc23)cc1 [Compound 55, 3-(4-(4-Fluorophenyl)-1H-pyrrolo[2,3-b]pyridin-2-yl)-5-(pyrimidin-5-yl)-1H-pyrazolo[4,3-b]pyridine]
EC50 [1]: > 10000 nM | inhibition at 10 µM [1]: 0%

Compound: Fc1cccc(-c2ccnc3[nH]c(-c4n[nH]c5ccc(-c6cncc(OCc7ccccc7)c6)nc45)cc23)c1 [Compound 518, 5-(5-(Benzyloxy)pyridin-3-yl)-3-(4-(3-fluorophenyl)-1H-pyrrolo[2,3-b]pyridin-2-yl)-1H-pyrazolo[4,3-b]pyridine]
EC50 [1]: 2450 nM

Compound: CC(C)(C)C(=O)Nc1cncc(-c2ccc3[nH]nc(-c4cc5c(-c6cccc(F)c6)ccnc5[nH]4)c3n2)c1 [Compound 8, N-(5-(3-(4-(3-Fluorophenyl)-1H-pyrrolo[2,3-b]pyridin-2-yl)-1H-pyrazolo [4,3-b]pyridin-5-yl)pyridin-3-yl)pivalamide]
EC50 [1]: 1100 nM

Compound: c1ccc(-c2ccc3[nH]nc(-c4cc5c(N6CCCCC6)ccnc5[nH]4)c3n2)nc1 [Compound 196, 3-(4-(Piperidin-1-yl)-1H-pyrrolo[2,3-b]pyridin-2-yl)-5-(pyridin-2-yl)-1H-pyrazolo[4,3-b]pyridine]
EC50 [1]: 2050 nM
